Paper PMC9782211 (Microorganisms, 2022)

Experiments:
[1] = Maximum attainable test concentration based on solubility; format: physicochemical; conditions: in aqueous 1% Pluronic PE9200
[2] = target: T1, hERG ion channel (gene ID 3757) (Homo sapiens, UniProt Q12809); experiment: Automated planar patch clamp (QPatch), hERG in CHO cells; format: cell-based; conditions: for relative remaining hERG current: QPatch
T1 construct: expressed in transfected cells
Protocol: For automated patch clamp experiments, QPatch, a planar patch clamp robot, was used. QPatch experiments were performed as previously described. […] Patch clamp experiments were performed in the whole-cell voltage clamp mode on a planar patch clamp chip. Successfully clamped cells were stimulated with the following stimulation protocol: From a holding potential of −80 mV, the cells were partially depolarized to −50 mV to test the leak current at this potential where hERG channels are closed. This was followed by a depolarization to +40 mV. At this depolarized potential, the hERG channels alternate between the open and inactivated states. After partially repolarizing to −50 mV, the inactivated subpopulation of hERG channels rapidly recovers from inactivation and switches into the open state, from where the channels slowly close.
Aspidasept (Pep19-2.5) was applied at nominal concentrations of 1 µg/mL, 10 µg/mL, and 100 µg/mL, and remaining hERG mediated potassium channel currents normalized to initial currents were calculated.

human erythrocytes = experiment: Hemolysis assay; format: cell-based; conditions: pH 7.4, 37 °C, 30 min
Protocol: The activity of the peptides to lyse freshly isolated human erythrocytes was determined in PBS, pH 7.4 at 37 °C. Dilutions were prepared in duplicate in a round bottom microtiter plate. For that, 20 µL erythrocytes (5 · 10^8 cells/mL) was incubated with 80 µL of a peptide sample at 37 °C for 30 min in a humidified box. The hemolytic activity after incubation was measured by transferring the supernatants into another empty microtiter plate. This plate was read on a microtiter plate reader at 405 nm. Hemolytic activity was expressed as the percentage of released hemoglobin with respect to water/buffer controls (100% release) or controls processed without peptides (0% release).
Red blood cells (RBCs) were obtained from citrated human blood by centrifugation (1500× g, 10 min), washed three times with isotonic 20 mM phosphate-NaCl buffer (pH 7.4), and suspended in the same buffer at a concentration equivalent to 5% of the normal hematocrit. […] The supernatants were analyzed spectrophotometrically (with absorbance at 543 nm) for hemoglobin, and results were expressed as the percentage released with respect to sonicated controls (100% release) or controls processed without peptides (0% release).

local lymph node = experiment: Local lymph node assay (LLNA), skin sensitization; format: in vivo, mouse
Protocol: • Application of substance on external surface of each ear (25 µL/ear) for 3 consecutive days • On day 6, intravenous injection of tritiated methyl thymidine (^3HTdR) in tail vein, and after about 6 h, sacrification and preparation of lymph node cell • Cell proliferation in lymph node measured by incorporation of ^3HTdR

[3] = system: male and female Wistar rats; experiment: 14-day repeated dose toxicology, continuous intravenous infusion; format: in vivo, rat
Protocol: Continuous intravenous infusion was performed over 14 days with 0.5 mg/kg, 3.2 mg/kg, and 20.0 mg/kg Pep19-2.5 and compared to the vehicle in male and female Wistar rats. Groups comprised 10 animals per gender, with an additional 5 animals per gender for recovery animals in the vehicle and high dose groups. The details of the 14-day repeated dose toxicity study will be published elsewhere.
Continuous intravenous infusion was performed over 14 days with 0.5 mg/kg, 3.2 mg/kg and 20.0 mg/kg Pep19-2.5 and compared to the vehicle in male and female Wistar rats. Groups comprised 10 animals per gender, with an additional 5 animals per gender for recovery animals in the vehicle and high dose groups. Based on the parameters determined, the following results were found: […]

hERG ion channel = hERG ion channel (Homo sapiens, UniProt Q12809); experiment: Manual patch clamp, hERG channel currents; format: cell-based; conditions: 1 µg/mL, fraction
hERG ion channel, sequence (Q12809 whole entry): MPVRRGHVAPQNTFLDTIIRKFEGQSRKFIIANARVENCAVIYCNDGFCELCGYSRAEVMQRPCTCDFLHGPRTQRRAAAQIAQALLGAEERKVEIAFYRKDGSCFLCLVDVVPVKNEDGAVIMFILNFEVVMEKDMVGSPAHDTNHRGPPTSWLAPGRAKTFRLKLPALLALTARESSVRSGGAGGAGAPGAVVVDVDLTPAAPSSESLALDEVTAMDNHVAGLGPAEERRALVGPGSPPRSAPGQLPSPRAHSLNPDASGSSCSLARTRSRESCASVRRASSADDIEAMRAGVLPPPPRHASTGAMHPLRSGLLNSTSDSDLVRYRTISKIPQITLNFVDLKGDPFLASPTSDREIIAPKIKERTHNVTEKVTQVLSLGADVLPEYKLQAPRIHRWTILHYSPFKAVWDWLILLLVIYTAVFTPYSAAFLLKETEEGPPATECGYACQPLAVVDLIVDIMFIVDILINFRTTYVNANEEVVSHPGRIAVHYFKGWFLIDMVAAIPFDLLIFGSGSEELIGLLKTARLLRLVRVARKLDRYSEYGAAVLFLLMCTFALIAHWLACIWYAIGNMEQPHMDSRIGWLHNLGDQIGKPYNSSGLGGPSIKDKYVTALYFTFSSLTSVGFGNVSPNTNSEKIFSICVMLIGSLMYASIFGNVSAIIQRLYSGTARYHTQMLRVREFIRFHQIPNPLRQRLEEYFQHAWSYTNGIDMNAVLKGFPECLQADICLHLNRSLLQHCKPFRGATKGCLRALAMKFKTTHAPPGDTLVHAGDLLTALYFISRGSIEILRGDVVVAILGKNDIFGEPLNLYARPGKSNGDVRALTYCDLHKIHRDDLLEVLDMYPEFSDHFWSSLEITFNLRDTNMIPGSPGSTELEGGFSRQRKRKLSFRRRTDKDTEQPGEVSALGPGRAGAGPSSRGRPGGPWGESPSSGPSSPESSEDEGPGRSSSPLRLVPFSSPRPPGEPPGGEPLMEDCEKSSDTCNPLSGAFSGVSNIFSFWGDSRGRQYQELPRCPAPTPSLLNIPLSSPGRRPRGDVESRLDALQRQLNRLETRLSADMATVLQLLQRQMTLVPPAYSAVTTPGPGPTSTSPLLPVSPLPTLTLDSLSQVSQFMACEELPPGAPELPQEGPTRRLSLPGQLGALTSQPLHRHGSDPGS
Protocol: Manual patch clamp experiments were performed in the whole cell configuration [20] at room temperature. An EPC 10 patch clamp amplifier and the PatchMaster software (v2x90.5; both HEKA Elektronik, Germany) were used. […] The data were analyzed using R (version 3.6.3).
The manual patch clamp recordings on the hERG ion channel were performed with the same stimulation protocol as previously described, with an adjusted holding potential of −70 mV. After the establishment of the whole cell, the stimulation protocol was executed every 15 s for a period of 20 min. The application protocol had the following course: 5 min negative control period with an application of 0.1% DMSO, 10 min application of the test compound in one concentration, and 5 min positive control period with an application of E4031 (10 µM).
The extracellular solution for the recordings contained (in mM): 145 NaCl, 4 KCl, 10 glucose, 10 HEPES, 2 CaCl2, and 1 MgCl2; pH was adjusted to 7.4 by adding NaOH. The osmolarity of the solution was adjusted to 305 mOsmol/kg. The intracellular solution contained (in mM): 120 KCl, 1.7 MgCl2, 4 K2ATP, 5 CaCl2, 10 HEPES, and 10 EGTA; pH was adjusted to 7.2 by adding KOH. The osmolarity was adjusted to 292 mOsmol/kg.

[4] = system: human mononuclear cells (hMNCs); experiment: MTT test, metabolic activity of human mononuclear cells; format: cell-based
Protocol: Furthermore, the MTT assay was performed to determine the metabolic activity of the cells. In this test, the determination of cell viability is based on the reduction of the yellow water-soluble substance 3-(4,5-Dimethylthiazol-2-yl)-2,5-diphenyltetrazoliumbromid (MTT) into a blue-violet water-insoluble formacan.

T1 sequence (Q12809 whole entry): as above

N=C(N)NCCC[C@H](NC(=O)[C@H](Cc1ccc(O)cc1)NC(=O)[C@H](CCCCN)NC(=O)[C@H](CCCCN)NC(=O)[C@H](CS)NC(=O)CN)C(=O)N[C@@H](CCCNC(=N)N)C(=O)N[C@@H](Cc1ccccc1)C(=O)N[C@@H](CCCNC(=N)N)C(=O)N[C@@H](Cc1c[nH]c2ccccc12)C(=O)N[C@@H](CCCCN)C(=O)N[C@@H](Cc1ccccc1)C(=O)N[C@@H](CCCCN)C(=O)NCC(=O)N[C@@H](CCCCN)C(=O)N[C@@H](Cc1ccccc1)C(=O)N[C@@H](Cc1c[nH]c2ccccc12)C(=O)N[C@@H](Cc1ccccc1)C(=O)N[C@@H](Cc1c[nH]c2ccccc12)C(=O)NCC(N)=O [Pep19-2.5]
maximum attainable test concentration based on solubility [1]: 5 % (w/v)
Rel. Rem. Current ± SD (QPatch) ([2]; 1 µg/mL, fraction): 0.97 ± 0.02
Rel. Rem. Current (QPatch, 20 min Application) ([2]; 10 µg/mL, fraction): 0.92
Rel. Rem. Current ± SD (QPatch) ([2]; 10 µg/mL, fraction): 0.95 ± 0.02
relative remaining hERG current ([2]; 1 µg/mL (Aspidasept n = 4; Pep19-4LF n = 3)): 97.2 ± 2.2%
relative remaining hERG current ([2]; 10 µg/mL (Aspidasept n = 4; Pep19-4LF n = 1)): 95.2 ± 2.5%
relative remaining hERG current ([2]; 10 µg/mL applied for up to 20 min): 92.2%
IC50 ([2]; estimated, no significant effect at highest concentration tested (10 µg/mL), read-out: hypothetical IC50 on hERG-mediated potassium current): > 3.69 µM
lysis of erythrocytes (human erythrocytes; at 100 μg/mL, released hemoglobin vs 100% release control): ≤ 20%
concentration above which cytotoxicity increases (hemolysis) (human erythrocytes): above 20 μg/mL
skin sensitization potential (local lymph node; 5%, 2.5%, 1% and 0.5% (w/v) in 1% Pluronic aqueous solution, 25 µL/ear, 3 consecutive days, 3HTdR incorporation): no skin sensitization potential
preliminary irritation/toxicity test (local lymph node; up to 5% (w/v) in aqueous 1% Pluronic): no adverse effect
injection site findings ([3]; 20 mg/kg dose group): local irritating effect
body weight gain ([3]; all dose groups): No statistically significant effect
ophthalmology, clinical chemistry, urine, organ weights ([3]; all dose groups): not affected
aPTT ([3]; female Wistar rats, 0.5 mg/kg/day, n = 10): 19.9 ± 2.2 s
PT ([3]; female, 0.5 mg/kg/day, n = 10): 20.3 ± 2.5 s
TT ([3]; female, 0.5 mg/kg/day, n = 10): 25.7 ± 1.0 s
TT ([3]; female, 3.2 mg/kg/day, n = 10): 25.4 ± 1.0 s
TT ([3]; female, 20.0 mg/kg/day, n = 10): 25.8 ± 0.7 s
mortality ([3]; high dose group 20 mg/kg): One male of the high dose group died
reticulocytes ([3]; high dose group, both genders, complete recovery): slightly reduced
behavioural findings ([3]; high dose group, single animals): test item-related behavioural findings (increased activity, muscle tremor, increased incidence of animals showing signs of discomfort, such as chromorhinorrhea or piloerection)
aPTT ([3]; male Wistar rats, 0.5 mg/kg/day, end of infusion, mean ± SD, n = 9): 19.9 ± 1.7 s
TT ([3]; male, 0,5 mg/kg/day, n = 9): 25.3 ± 1.0 s
PT ([3]; male, 0.5 mg/kg/day, n = 9): 20.0 ± 1.1 s
PT ([3]; male, 3.2 mg/kg/day, n = 10): 21.5 ± 1.3 s
TT ([3]; male, 3.2 mg/kg/day, n = 10): 25.0 ± 0.9 s
aPTT ([3]; male, 3.2 mg/kg/day, n = 10): 18.6 ± 1.8 s
TT ([3]; male, 20.0 mg/kg/day, n = 7): 25.0 ± 0.8 s
PT ([3]; male, n = 7, printed 0.5 mg/kg/day): 20.9 ± 1.3 s
histopathological systemic toxicity ([3]; rat, in vivo): absence of any histopathological systemic toxicity
Rel. Rem. Current ± SD (Manual Patch-Clamp) (hERG ion channel): 1.00 ± 0.04
metabolic state of the hMNC ([4]; at 100 μg/mL): decreases dramatically
concentration above which cytotoxicity increases (MTT) ([4]; hMNC, MTT test, Figure 1): above 20 μg/mL
